From publication PMC11273453, “Pentaphosphorylation via the Anhydride of Dihydrogen Pentametaphosphate: Access to Nucleoside Hexa- and Heptaphosphates and Study of Their Interaction with Ribonuclease A” (ACS Central Science, 2024)

Legend:
Ribonuclease A (RNase A) [1] = target: T1, Ribonuclease A (RNase A) (Bos taurus, UniProt P61823); test: direct […]{1H} NMR titration (binding constant Ka); settings: read-out: direct 31P{1H} NMR titration (binding constant Ka) (converted)
T1 construct: gene RNASE1
T1 sequence (P61823 27-150): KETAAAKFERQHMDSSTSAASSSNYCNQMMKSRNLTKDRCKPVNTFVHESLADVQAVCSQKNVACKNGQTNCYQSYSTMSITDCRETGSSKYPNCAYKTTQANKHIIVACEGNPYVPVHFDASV

Ribonuclease A (RNase A) [2] = target: T1, Ribonuclease A (RNase A); test: […]{1H} NMR competition titration with RNase A·p3A (binding constant Ka); settings: read-out: 31P{1H} NMR competition titration with RNase A.p3A (binding constant Ka) (converted)
Ribonuclease A (RNase A) [3] = target: T1, Ribonuclease A (RNase A); test: X-ray cocrystal structure; RNase A inhibition assay (Ki); assay type: biochemical
Ribonuclease A (RNase A) [4] = target: T1, Ribonuclease A (RNase A); test: X-ray cocrystal structure (soaking); FRET inhibition assay (Ki); […] NMR titration; assay type: biochemical

Structure (SMILES) | Ki (Ribonuclease A (RNase A) [3]) | Ki (Ribonuclease A (RNase A) [4]) | further results
O=P1(O)OP(=O)(O)OP(=O)(O)OP(=O)(O)O1 [cP4i, tetrametaphosphate] | – | – | Kd (Ribonuclease A (RNase A) [1]): 23.5 µM
O=c1ccn([C@@H]2O[C@H](COP(=O)(O)OP(=O)(O)OP(=O)(O)OP(=O)(O)OP(=O)(O)O)[C@@H](O)[C@H]2O)c(=O)[nH]1 [p5U] | – | – | Kd (Ribonuclease A (RNase A) [2]): 53.8 nM
Nc1ncnc2c1ncn2[C@@H]1O[C@H](COP(=O)(O)OP(=O)(O)OP(=O)(O)OP(=O)(O)OP(=O)(O)OP(=O)(O)O)[C@@H](O)[C@H]1O [p6A] | 3.6 ± 0.6 µM | – | –
O=c1ccn([C@@H]2O[C@H](COP(=O)(O)OP(=O)(O)OP(=O)(O)OP(=O)(O)OP(=O)(O)OP(=O)(O)O)[C@@H](O)[C@H]2O)c(=O)[nH]1 [p6U] | – | 1100 ± 200 nM | –
Nc1ncnc2c1ncn2[C@@H]1O[C@H](COP(=O)(O)OP(=O)(O)OP(=O)(O)OP(=O)(O)OP(=O)(O)OP(=O)(O)OP(=O)(O)O)[C@@H](O)[C@H]1O [p7A] | 2.6 ± 0.4 µM | – | –
O=c1ccn([C@H]2O[C@@H](COP(=O)(O)OP(=O)(O)OP(=O)(O)OP(=O)(O)OP(=O)(O)OP(=O)(O)OP(=O)(O)O)[C@@H](O)[C@H]2O)c(=O)[nH]1 [p7U] | – | 1000 ± 200 nM | –
